The values that follow come from publication PMC11208742, “5,7,4′‐Trimethoxyflavone triggers cancer cell PD‐L1 ubiquitin–proteasome degradation and facilitates antitumor immunity by targeting HRD1” (MedComm, 2024).

In the test the target is T1, HRD1 (HMG-CoA reductase degradation protein 1) (Homo sapiens, UniProt Q86TM6).
T1 construct: gene SYVN1; GFP-tagged wild-type HRD1 expressed in 293T cells, cell lysate (MST); endogenous untagged HRD1 in RKO cell lysate (CETSA)
As to the kind of experiment: microscale thermophoresis, GFP-HRD1. Type of test: binding.

T1 sequence (Q86TM6 whole entry): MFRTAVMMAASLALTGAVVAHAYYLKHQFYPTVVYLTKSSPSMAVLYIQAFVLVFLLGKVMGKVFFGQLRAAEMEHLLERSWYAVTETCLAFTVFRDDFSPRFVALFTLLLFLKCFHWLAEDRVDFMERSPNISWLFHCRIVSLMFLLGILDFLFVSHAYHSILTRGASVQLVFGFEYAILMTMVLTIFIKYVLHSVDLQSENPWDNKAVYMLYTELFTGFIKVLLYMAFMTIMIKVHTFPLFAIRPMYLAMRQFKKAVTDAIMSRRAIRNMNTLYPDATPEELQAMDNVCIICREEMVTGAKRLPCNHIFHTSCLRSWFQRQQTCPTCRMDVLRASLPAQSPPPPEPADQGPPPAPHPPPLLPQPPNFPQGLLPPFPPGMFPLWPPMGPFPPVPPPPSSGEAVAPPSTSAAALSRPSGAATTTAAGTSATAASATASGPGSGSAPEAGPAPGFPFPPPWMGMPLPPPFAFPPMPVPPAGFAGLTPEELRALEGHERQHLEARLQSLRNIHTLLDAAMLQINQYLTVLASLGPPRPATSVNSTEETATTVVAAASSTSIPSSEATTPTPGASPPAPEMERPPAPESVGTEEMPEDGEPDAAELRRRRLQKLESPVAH

For `COc1ccc(-c2cc(=O)c3c(OC)cc(OC)cc3o2)cc1` [TF], the affinity, expressed as Kd, was 8.02 µM.
